Data reported in patent US20030138432A1, “Selective cellular targeting: multifunctional delivery vehicles, multifunctional prodrugs, use as antineoplastic drugs” (Drug Innovation & Design, Inc., priority 1999, published 2003).
pIC50, pKi: −log10 of the molar value. Where two headings read alike, the source gives them in different places.

Legend:
Protein Kinase C (PKC) = details: cited from earlier work
PKA = PKA (Homo sapiens, UniProt P17612); details: cited from earlier work
[1] = tested on: PSMA positive human prostate tumor cells; assay: In vitro growth of PSMA positive prostate tumor cells with a PSMA inhibitor; type: cell-based; details: in the presence of high concentrations of the inhibitor
PSMA = target: T1, PSMA (Homo sapiens, UniProt Q04609); assay: Inhibition of PSMA, radiolabelled N-acetylaspartylglutamate as substrate, generation of glutamic acid monitored; type: biochemical
T1 construct: PSMA was prepared from LNCaP prostatic carcinoma cells as described by Pinto J. T. et al; endogenous in cells; host or cells: LNCaP prostatic carcinoma cells
Protocol: PSMA was prepared from LNCaP prostatic carcinoma cells as described by Pinto J. T. et al., Clinical Cancer Res. Vol.2 p.1445 (1996). The enzyme was assayed employing radiolabelled N-acetylaspartylglutamate as a substrate and monitoring the generation of glutamic acid in the presence of varying concentrations of Compound 1 or 1.1. […] Compound 1.1 inhibited the enzyme 50% at 3.4 nM.

[2] = read-out: IC50 (cytotoxin); cited from earlier work
[3] = target: dihydroorotic acid dehydrogenase (Homo sapiens, UniProt Q02127); details: cited from earlier work
IMP dehydrogenase = details: cited from earlier work

T1 sequence (Q04609 whole entry): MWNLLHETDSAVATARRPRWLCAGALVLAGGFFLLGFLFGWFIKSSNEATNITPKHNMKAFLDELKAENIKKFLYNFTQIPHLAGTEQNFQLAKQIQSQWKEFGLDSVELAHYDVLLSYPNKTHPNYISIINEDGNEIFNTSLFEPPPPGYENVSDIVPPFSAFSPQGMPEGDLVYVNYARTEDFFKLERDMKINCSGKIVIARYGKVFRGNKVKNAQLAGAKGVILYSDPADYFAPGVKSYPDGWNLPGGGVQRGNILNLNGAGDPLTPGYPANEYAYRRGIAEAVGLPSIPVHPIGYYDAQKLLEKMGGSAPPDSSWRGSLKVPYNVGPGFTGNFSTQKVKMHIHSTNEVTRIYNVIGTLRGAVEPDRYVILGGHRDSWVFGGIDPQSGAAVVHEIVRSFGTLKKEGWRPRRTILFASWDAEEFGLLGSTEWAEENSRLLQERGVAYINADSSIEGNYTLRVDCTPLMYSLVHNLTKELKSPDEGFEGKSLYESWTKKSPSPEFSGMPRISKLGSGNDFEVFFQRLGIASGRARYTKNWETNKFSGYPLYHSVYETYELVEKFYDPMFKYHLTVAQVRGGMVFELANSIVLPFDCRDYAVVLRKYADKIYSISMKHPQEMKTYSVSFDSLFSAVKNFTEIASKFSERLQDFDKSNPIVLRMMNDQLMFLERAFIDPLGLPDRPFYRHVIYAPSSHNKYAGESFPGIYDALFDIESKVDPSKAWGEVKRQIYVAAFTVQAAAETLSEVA
dihydroorotic acid dehydrogenase, sequence (Q02127 whole entry): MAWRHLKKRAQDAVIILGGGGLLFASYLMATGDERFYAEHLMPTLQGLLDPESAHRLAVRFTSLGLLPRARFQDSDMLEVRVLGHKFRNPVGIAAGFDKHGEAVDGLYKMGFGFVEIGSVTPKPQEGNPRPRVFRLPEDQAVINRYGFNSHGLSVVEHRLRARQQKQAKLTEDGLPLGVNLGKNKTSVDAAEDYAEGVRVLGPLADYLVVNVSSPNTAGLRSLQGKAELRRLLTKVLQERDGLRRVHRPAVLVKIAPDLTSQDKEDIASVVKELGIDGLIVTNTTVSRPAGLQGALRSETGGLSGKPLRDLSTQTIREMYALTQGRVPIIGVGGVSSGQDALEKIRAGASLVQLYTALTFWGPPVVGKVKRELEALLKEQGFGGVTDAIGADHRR

10″-deoxybalanol
pKi (Protein Kinase C (PKC)): 6.19 | pKi (PKA): 8.40

O=C(O)CCC(CP(=O)(O)O)C(=O)O (stereo not shown) [2-(phosphonomethyl)-pentanedioic acid]
growth of tumor cells in vitro [1]: readily grow

O=C(O)CCC(CP(=O)(O)CCC(=O)NC(CCCCNC(=S)Nc1ccc(-c2c3ccc(=O)cc-3oc3cc(O)ccc23)c(C(=O)O)c1)C(=O)NCCc1ccc(O)cc1)C(=O)O (stereo not shown) [Compound 1.1]
pIC50 (PSMA): 8.47 | pKi (PSMA): 8.47

O=C(O)CCC(OP(=O)(O)OCCCOCCNC(=O)CCCCCNS(=O)(=O)c1ccc(C2=c3cc4c5c(c3Oc3c2cc2c6c3CCCN6CCC2)CCC[N+]=5CCC4)c(S(=O)(=O)[O-])c1)C(=O)O (stereo not shown) [Compound 1]
pIC50 (PSMA; PSMA prepared from LNCaP prostatic carcinoma cells, radiolabelled N-acetylaspartylglutamate substrate, read-out: concentration that inhibited the enzyme 50%): 7.70 | pKi (PSMA; PSMA prepared from LNCaP prostatic carcinoma cells, read-out: Ki for inhibition of PSMA): 7.70

COc1c(C)cc2c(c1O)C1C3Cc4c(OC(C)=O)c(C)c5c(c4C(CN4C(=O)c6ccccc6C4=O)N3C(C#N)C(C2)N1C)OCO5 (stereo not shown) [Phthalascidin]
pIC50 [2]: 9.00 to 10.00

Cc1c(-c2ccc(-c3ccccc3F)cc2)nc2ccc(F)cc2c1C(=O)O [brequinar]
level at which dihydroorotic acid dehydrogenase is inhibited [3]: nonamolar levels

COc1c(C)c2c(c(O)c1C/C=C(\C)CCC(=O)O)C(=O)OC2 [mycophenolic acid]
level at which IMP dehydrogenase is inhibited (IMP dehydrogenase): nanomolar levels
